Reference: patent publication US7615361B2, “Toxicity screening methods” (Ceetox, Inc., priority 2006, dated 2009)
No end group written: not given here.

Assays:
ANP = test: bDNA analysis of mRNA in rat cardiomyocytes; format: cell-based; details: rat cardiomyocytes
From the text: (§1) Hypertrophy of the heart ventricular myocytes is regulated by a complex series of intracellular signaling processes involving angiotensin receptors and a series of down stream gene expression changes (Li et al. 2006). Endothelin-1 (ET-1) induces hypertrophy of cardiomyocytes in vivo and in vitro. The mechanism of ET-1-induced hypertrophy consists in the activation of phospholipase C, protein kinase C, extra cellular signal regulated kinase (ERK) and upregulation of cfos and cjun.
(§2) Expression of ANP and BNP mRNA levels was determined by bDNA analysis of mRNA. ET-1 at 0.1 μM was included as a positive control.
(§3) […] Plates were mixed using a DPC 5 Micromix plate shaker at 37° C. for 15-30 minutes to ensure complete lysis of cells. Cell lysis was confirmed using a Nikon inverted microscope. Plates were stored at −80° C. until further analysis.
(§4) bDNA Analysis (Day 1): All solutions were prepared fresh on the day of analysis. Quantigene® bDNA kit components were brought to room temperature prior to use. Chemicals not supplied by Genospectra were obtained from Sigma-Aldrich.
(§5) On the day of analysis, Target Probe Sets were prepared for probe gene sets by adding 25 μL of each probe set component (CE, LE, BL) to 425 μL stock lysis solution using the following probe set concentrations: CE (50 fmol/μL), LE (200 fmol/μL), BL (100 fmol/μL).
(§6) Cell lysis plates were removed from freezer storage and thawed. […] Next, 10 μL of the appropriate Target Probe Set (PS2) was added to each appropriate well of the Capture Plate. Plates were tightly sealed using a plate sealer and incubated at 53° C. for 16-20 hr (overnight).
(§7) bDNA Analysis (Day 2): Wash buffer was prepared in ultra-pure water using 0.1×Saline-Sodium Citrate (SSC) and 0.03% Lithium Lauryl Sulfate (LLS). Amplifier working solution was prepared by adding 10 μL Amplifier to 10 mL Amplifier Diluent per plate.
(§8) Plates were removed from incubator and washed three times with 300 μL wash buffer. Wash buffer was completely removed from plates by aspiration and 100 μL Amplifier working solution was added to each well. Plates were sealed and incubated at 46° C. for 1 hr.
(§9) Label Probe working solution was prepared by adding 10 μL Label Probe to 10 mL Label Probe Diluent per plate. […] Plates were sealed and incubated at 46° C. for 1 hr.

MTT reduction [1] = format: cell-based, rat; details: rat, MTT TC50
Protocol: (§10) One test compound (Compound A) was received as dry powder and evaluated for potential cytotoxicity in a battery of in vitro assays. The compound was tested using both rat cardiomyocytes (CM) from rat neonates and a rat hepatoma (H4IIE) cell line. […] The cell supernatant or the cells themselves were harvested for biochemical analysis. General cytotoxicity was evaluated by monitoring membrane integrity, mitochondrial function, cell proliferation, oxidative stress, and apoptosis. In addition, interaction with P-glycoprotein (PgP) on H4IIE cells and solubility of the test compound were also assessed. The means of each exposure group (n=3-7) were calculated for each assay performed.
(§11) Experimental Protocol: The test compound was provided and stored at 4° C. until needed. Dosing solutions were prepared in complete culture medium. The rat hepatoma (H4IIE) cell line was used as the test system.
(§12) Tetrazolium Dye Reduction: 3-[4,5-dimethylthiazol-2-yl]

[2] = Intracellular total glutathione (GSH); format: cell-based, rat; details: rat
Protocol: as §10

[3] = MemTox membrane leakage (AK / α-GST); format: cell-based, rat; details: rat, MemTox TC50
Protocol: as §10, §11
(§13) Membrane Leakage (α-Glutathione S-transferase and/or Adenylate Kinase): The presence of Adenylate Kinase (AK) or α-Glutathione S-transferase (α-GST), both enzyme leakage markers, was measured in the culture medium using an activity assay for Adenylate Kinase and/or an ELISA assay for α-GST. At the end of the exposure period, the medium covering the cells in each well was removed and placed into new 96-well plates with appropriate labeling. […] Luminescence (AK) values were measured with a Packard Fusion or equivalent plate reader, and absorbance (α-GST) values were measured with a Packard SpectraCount™ or equivalent reader at 450 nm and reference absorbance at 650 nm.
(§14) Membrane Leakage (α-Glutathione S-transferase and/or Adenylate Kinase): Leakage of Adenylate Kinase or α-GST from the cell into the culture medium was determined by collecting the culture medium at the end of the exposure period. Thus, the values measured represent total enzyme leakage lost over the exposure period. The control for 100% dead or maximum enzyme release was based on cells treated with 1 mM digitonin at the time of dosing. Percent dead cells relative to digitonin treated cells was determined and then subtracted from 100% to yield the percent live cells.

Intracellular ATP levels [4] = format: cell-based, rat; details: rat, ATP TC50
Protocol: as §10, §11
(§15) Intracellular ATP Levels: Cellular Adenosine triphosphate (ATP) was determined with an assay based on a reaction between ATP+D-luciferin+oxygen catalyzed by luciferase to yield Oxyluciferin+AMP+PPi+CO2+light. The emitted light is proportional to the amount of ATP present. […] In addition, a unique cell lysis reagent inhibits endogenous ATPases and therefore stabilizes cellular ATP by preventing its degradation to ADP. ATP is present in all-living cells and declines rapidly upon cell death. In addition, this assay in combination with the MTT assay provides an indicator of mitochondrial activity and energy status of the cell.
(§16) Plates were analyzed immediately or stored at −20° C. until needed. On the day of analysis, the plates were thawed and calibration curve prepared with ATP in the same liquid matrix as samples. ATP was quantified by adding ATP substrate solution and then reading luminescence on a Packard Fusion Luminescence or equivalent plate reader.
(§17) Intracellular ATP Levels: ATP levels in treated cells could be determined by using the regression coefficients obtained from the linear regression analysis of the calibration curve. Thus, values could be expressed as pmoles ATP/million cells. Background corrected luminescence was used to determine percent change relative to controls by dividing treated values by control values and multiplying by 100.

MTT reduction [5] = format: cell-based, rat; details: rat
Protocol: as §10, §12

[6] = Intracellular total glutathione (GSH); format: cell-based, rat; details: rat, Total GSH TC50
Protocol: as §10, §11

[7] = Cell number (propidium iodide); format: cell-based, rat; details: rat, Cell Number TC50
Protocol: as §10, §11
Cell Proliferation: Cell proliferation in each well was measured with propidium iodide (PI). This specific nucleic acid binding dye fluoresces when intercalated within the nucleic acids. The 15 nm shift enhances PI fluorescence approximately 20 times while the excitation maxima are shifted 30-40 nm. During method development experiments, it was determined that Triton-X-100 was the best solution to permeabilize the H4IIE cells thereby allowing the PI access to intracellular RNA and DNA. Fluorescence was measured using a Packard Fusion plate reader or equivalent reader at 540 nm excitation and 610 nm emission.
Cell Proliferation: After incubation, the test compound was removed and Triton X-100 solution containing propidium iodide is added. The plate was incubated and read on a fluorescent plate reader. Data was collected as relative fluorescent units (RFU). The blank was subtracted from the final well RFU. It represents the average of the first and last columns which contain no cells on that particular plate. The controls are untreated cells allowed to grow on the same plate. The compounds are represented by several separate RFU data points for each of the tested concentrations. The percent change relative to controls was calculated by dividing the average RFU by the control cell RFU and multiplying by 100.

Intracellular ATP levels [8] = format: cell-based, rat; details: rat
Protocol: as §10, §15, §16, §17

H4IIE cells [9] = test: Predicted Ctox from Tox-Panel; format: cell-based, rat; details: 24 HR, estimated sustained plasma concentration where toxicity would be expected in vivo
Protocol: Once all data for a given cluster of assays are received, the data are analyzed to obtain a detailed profile of the compound's toxicity. For example, most conveniently, the data are collated over a dose response range on a single graph. In such an embodiment, the measurement evaluated for each parameter (i.e., each indicator of cell health) at any given concentration is plotted as a percentage of a control measurement obtained in the absence of the compound. However, it should be noted that the data need not be plotted on a single graph, so long as all the parameters are analyzed collectively to yield detailed information of the effects of the concentration of the compound on the different parameters to yield an overall toxicity profile. As set forth below, this overall toxicity profile will facilitate a determination of a plasma concentration Ctox that is predicted to be toxic in vivo. Ctox represents an estimate of the sustained plasma concentration in vivo that would result in toxicity, such as hepatotoxicity or hematopoietic toxicity.
Studies such as these indicate that a preferred concentration for setting Ctox is the highest concentration at which there is no observed effect on any of the indicators being measured in the cluster analysis, especially a 24-hour cluster analysis. […] It will be apparent that 24 hour assays are more time-effective, and consequently, the 24 hour NOEL/Ctox represents a preferred data point to select as Ctox in a CATS assay. It will also be apparent that, with further time studies, it may be possible to select an equally suitable Ctox at other CATS assay time points (e.g., between 24 and 72 hours, or less than 24 hours).
In certain embodiments, the predicting comprises performing concentration response analyses of measurements from at least three separate assays that are employed in the cluster analysis. For example, in the cell health cluster, such predicting will involve monitoring the concentration response effect of the compound on a first health indicator which monitors cellular replication, a second cell health indicator which monitors mitochondrial function, and a third cell health indicator which monitors membrane integrity. Of course, it is understood that fourth, fifth, sixth or more cell health indicators also may be employed. From these concentration response analyses, the highest concentration of the chemical compound at which a measurable toxic effect of the chemical compound is not observable, i.e. NOEL, is determined and the Ctox is identified as the concentration that correlates to the NOEL. In choosing the concentrations of the compound for analysis, one of skill in the art should devise a dose response regimen which is selected to provide an indication of cell health at concentrations of at least two concentration values higher than the Ctox concentration.
The Ctox (H4IIE) value was developed using 24 hr in vitro toxicity data and was validated by retrospectively evaluating compounds across different classes of drugs in 14-day rat studies in which compounds were administered on a daily basis and pharmacokinetic data was available. […] Thus, Ctox values are only determined for the 24 hr in vitro results. The 6 hr toxicity analyses are typically not performed but are beneficial for interpretation of results when compound toxicity is high (e.g., Ctox≦20 μM).

[10] = MemTox membrane leakage (AK / α-GST); format: cell-based, rat; details: rat
Protocol: as §10, §13, §14

P-glycoprotein (PgP) = P-glycoprotein (PgP) binding: MTT with and without cyclosporin A; format: cell-based, rat; details: H4IIE 24 HR; for % Control (Compound + CSA) / % Control (Compound): MTT, 50 μM; for % Control (Compound + CSA): with cyclosporin A; for % Control (Compound): without CSA; for % Difference: 1-20% low, 20-50% moderate, 50-100% high PgP interaction
Protocol: Several antiviral drugs are substrates for P-glycoprotein transporter (PgP).
P-glycoprotein (PgP) transport proteins are expressed in the bile canalicular membrane of normal liver. However, in neoplastic cells it is not uncommon to have expression of this transporter system in the plasma membrane. […] The existence of these transporters was evaluated with the Calcein-AM assay and with known substrates of PgP.

rat cardiomyocytes [11] = test: Membrane lipid peroxidation (8-isoprostane ELISA); format: cell-based; details: rat, 24 h
Protocol: (§18) One test compound (Compound A) was received as dry powder and evaluated for potential cytotoxicity in a battery of in vitro assays. The compound was tested using both rat cardiomyocytes (CM) from rat neonates and a rat hepatoma (H4IIE) cell line. […] Camptothecin and rotenone were included as positive control compounds. The cell supernatant or the cells themselves were harvested for biochemical analysis. General cytotoxicity was evaluated by monitoring membrane integrity, mitochondrial function, cell proliferation, oxidative stress, and apoptosis. In addition, interaction with P-glycoprotein (PgP) on H4IIE cells and solubility of the test compound were also assessed. The means of each exposure group (n=3-7) were calculated for each assay performed. Intra assay variation well-to-well was typically less than 10% with plate to plate variation typically less than 20%.

H4IIE cells [12] = test: Membrane lipid peroxidation (8-isoprostane ELISA); format: cell-based, rat; details: rat, 24 h
Protocol: as §18, §11

rat cardiomyocytes [13] = test: MTT reduction; format: cell-based
Protocol: as §10, §12

BNP = test: bDNA analysis of mRNA in rat cardiomyocytes; format: cell-based; details: rat cardiomyocytes, 0.1 μM, after 3 hr
From the text: as §1, §2, §3, §4, §5, §6, §7, §8, §9

[14] = system: H4IIE tumor cells, NRK cells, rat primary hepatocytes; test: Anti-tumor screen in three rat cell types; format: cell-based
From the text: In the Anti-tumor screen of the present invention, at least three different cell types are utilized: (1) tumor derived cells, (2) proliferating cells from normal tissue, and (3) non-proliferating cells from normal tissue. The evaluation of anti-tumor agents in multiple cell types provides information on mechanism-based toxicity versus efficacy.
The anti-tumor agent can be evaluated in a toxicity screen of key biochemical functions (as described in detail herein above), with emphasis placed on cell proliferation assays as well as biochemical function and cell viability. Comparisons can then be made to quantitative markers in the concentration response curves constructed with the toxicity data.
It is hypothesized to act through mitochondrial toxicity as well as apoptosis.

CS(=O)(=O)c1ccc(C2=C(c3ccccc3)C(=O)OC2)cc1 [Vioxx]
induction of the hypertrophy marker ANP, Vioxx versus Celebrex (ANP; normalized with GAPDH): more effective at inducing the hypertrophy marker ANP

Cc1ccnc2c1NC(=O)c1cccnc1N2C1CC1 [NEVIRAPINE, nevirapine]
CC50 at 24 h (MTT reduction [1]): > 300 µM | CC50 at 24 h [2]: 251 µM | CC50 at 24 h [3]: > 300 µM | CC50 at 24 h (Intracellular ATP levels [4]): > 300 µM | CC50 at 24 h (MTT reduction [5]): > 300 µM | CC50 at 24 h [6]: > 300 µM | CC50 at 24 h [7]: > 300 µM | CC50 at 24 h (Intracellular ATP levels [8]): > 300 µM | Predicted Ctox (H4IIE cells [9]): 100 µM | CC50 at 24 h [10]: > 300 µM | % Control (Compound + CSA) (P-glycoprotein (PgP)): 90.2% | % Control (Compound) (P-glycoprotein (PgP)): 115.5% | % Difference (P-glycoprotein (PgP)): 21.9%

CC(C)c1nc(CN(C)C(=O)N[C@H](C(=O)N[C@@H](Cc2ccccc2)C[C@H](O)[C@H](Cc2ccccc2)NC(=O)OCc2cncs2)C(C)C)cs1 [RITONAVIR, ritonavir]
Membrane Lipid Peroxidation (rat cardiomyocytes [11]): 0 | Membrane Lipid Peroxidation (H4IIE cells [12]): 0 | Predicted Ctox (H4IIE cells [9]): 52 µM | % Control (Compound + CSA) (P-glycoprotein (PgP)): 81.5% | % Control (Compound) (P-glycoprotein (PgP)): 100.6% | % Difference (P-glycoprotein (PgP)): 19.0%

Cc1ccc(NC(=O)c2ccc(CN3CCN(C)CC3)cc2)cc1Nc1nccc(-c2cccnc2)n1 [Imatinib]
potency in heart cells relative to H4IIE liver cells (rat cardiomyocytes [13]): three to four-fold more potent

Endothelin-1 (CSCSSLMDKECVYFCHLDIIW; ends and bridges not checked; cysteine pairing not given here; UniProt P05305 53-73, looked up) [ET-1, positive control inducing cardiomyocyte hypertrophy]
ANP expression increase (ANP; 0.1 μM, after 3 hr): approximately 2 fold | BNP expression increase (BNP): approximately 4.5 fold

CN(Cc1cnc2nc(N)nc(N)c2n1)c1ccc(C(=O)N[C@@H](CCC(=O)O)C(=O)O)cc1 [Methotrexate]
sensitivity of cell types in the anti-tumor screen [14]: the tumor cell line is most sensitive to mitochondrial damage
